Laboratory results from ChEMBL document CHEMBL4229354, “Synthesis, antiamoebic activity and docking studies of metronidazole-triazole-styryl hybrids” (Eur J Med Chem, 2018).

What was measured:
Entamoeba histolytica = assay: Antiamoebic activity against trophozoite stage of Entamoeba histolytica HM-1:IMSS measured after 72 hrs by microdilution method; type: functional, organism-based
Vero = assay: Cytotoxicity against African green monkey Vero cells up to 50 uM; type: cell-based; conditions: chlorocebus sabaeus

Structure (SMILES) | IC50 (Entamoeba histolytica) [nM] | Activity (Vero)
O=[N+]([O-])c1cnc(/C=C/c2ccc(Br)cc2)n1CCn1cc(CO)nn1 | 1650 | –
O=[N+]([O-])c1cnc(/C=C/c2ccccc2)n1CCn1cc(-c2ccccc2)nn1 | 1350 | Non-Toxic
O=[N+]([O-])c1cnc(/C=C/c2ccccc2)n1CCn1cc(CO)nn1 | 1120 | Non-Toxic
CCc1ccc(/C=C/c2ncc([N+](=O)[O-])n2CCn2cc(CO)nn2)cc1 | 4180 | –
Cc1ccc(/C=C/c2ncc([N+](=O)[O-])n2CCn2cc(CO)nn2)cc1 | 2130 | –
Cc1ccc(/C=C/c2ncc([N+](=O)[O-])n2CCn2cc(-c3ccccc3)nn2)cc1 | 2510 | –
O=[N+]([O-])c1cnc(/C=C/c2ccc(Br)cc2)n1CCn1cc(-c2ccccc2)nn1 | 1770 | –
O=[N+]([O-])c1cnc(/C=C/c2ccccc2)n1CCn1cc(-c2ccccn2)nn1 | 5130 | –
CCc1ccc(/C=C/c2ncc([N+](=O)[O-])n2CCn2cc(-c3ccccc3)nn2)cc1 | 4680 | –
O=[N+]([O-])c1cnc(/C=C/c2ccc(Br)cc2)n1CCn1cc(-c2ccccn2)nn1 | 1100 | Non-Toxic
O=[N+]([O-])c1cnc(/C=C/c2ccc(F)cc2)n1CCn1cc(-c2ccccn2)nn1 | 130 | Non-Toxic
Cc1ccc(/C=C/c2ncc([N+](=O)[O-])n2CCn2cc(-c3ccccn3)nn2)cc1 | 6010 | –
O=[N+]([O-])c1cnc(/C=C/c2ccc(F)cc2)n1CCn1cc(CO)nn1 | 180 | Non-Toxic

Continued, in another order:

IC50 (Entamoeba histolytica) [nM] | Structure (SMILES) | Activity (Vero)
5380 | Cc1ccc(/C=C/c2ncc([N+](=O)[O-])n2CCn2cc(COc3ccccc3)nn2)cc1 | –
280 | O=[N+]([O-])c1cnc(/C=C/c2ccc(F)cc2)n1CCn1cc(COc2ccccc2)nn1 | Non-Toxic
1680 | O=[N+]([O-])c1cnc(/C=C/c2ccc(Br)cc2)n1CCn1cc(COc2ccccc2)nn1 | –
1110 | O=[N+]([O-])c1cnc(/C=C/c2ccc(Cl)cc2)n1CCn1cc(CO)nn1 | Non-Toxic
1220 | O=[N+]([O-])c1cnc(/C=C/c2ccc(Cl)cc2)n1CCn1cc(-c2ccccc2)nn1 | Non-Toxic
3560 | O=[N+]([O-])c1cnc(/C=C/c2ccccc2)n1CCn1cc(COc2ccccc2)nn1 | –
290 | O=[N+]([O-])c1cnc(/C=C/c2ccc(Cl)cc2)n1CCn1cc(-c2ccccn2)nn1 | Non-Toxic
350 | O=[N+]([O-])c1cnc(/C=C/c2ccc(Cl)cc2)n1CCn1cc(COc2ccccc2)nn1 | Non-Toxic
120 | O=[N+]([O-])c1cnc(/C=C/c2ccc(F)cc2)n1CCn1cc(-c2ccccc2)nn1 | Non-Toxic
